Reference: paper PMC6934184, “Selective DNA-PKcs inhibition extends the therapeutic index of localized radiotherapy and chemotherapy” (The Journal of Clinical Investigation, 2019)

Target: T1, TEK (TIE2) Y1108F (Homo sapiens, UniProt Q02763, Y1108F)
T1 construct: purchased Thermo Fisher Scientific (Life Technologies) SelectScreen
Assay: SelectScreen LanthaScreen
Format: binding
Conditions: read-out: % displacement
Summary of the method: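 SelectScreen broad panel; activity (Z'LYTE, Adapta) plus binding formats. ATP: Km app for CSF1R Z'LYTE; 10 for CAMK1 Adapta. Readout = % per kinase.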

T1 sequence (Q02763 23-1124 Y1108F): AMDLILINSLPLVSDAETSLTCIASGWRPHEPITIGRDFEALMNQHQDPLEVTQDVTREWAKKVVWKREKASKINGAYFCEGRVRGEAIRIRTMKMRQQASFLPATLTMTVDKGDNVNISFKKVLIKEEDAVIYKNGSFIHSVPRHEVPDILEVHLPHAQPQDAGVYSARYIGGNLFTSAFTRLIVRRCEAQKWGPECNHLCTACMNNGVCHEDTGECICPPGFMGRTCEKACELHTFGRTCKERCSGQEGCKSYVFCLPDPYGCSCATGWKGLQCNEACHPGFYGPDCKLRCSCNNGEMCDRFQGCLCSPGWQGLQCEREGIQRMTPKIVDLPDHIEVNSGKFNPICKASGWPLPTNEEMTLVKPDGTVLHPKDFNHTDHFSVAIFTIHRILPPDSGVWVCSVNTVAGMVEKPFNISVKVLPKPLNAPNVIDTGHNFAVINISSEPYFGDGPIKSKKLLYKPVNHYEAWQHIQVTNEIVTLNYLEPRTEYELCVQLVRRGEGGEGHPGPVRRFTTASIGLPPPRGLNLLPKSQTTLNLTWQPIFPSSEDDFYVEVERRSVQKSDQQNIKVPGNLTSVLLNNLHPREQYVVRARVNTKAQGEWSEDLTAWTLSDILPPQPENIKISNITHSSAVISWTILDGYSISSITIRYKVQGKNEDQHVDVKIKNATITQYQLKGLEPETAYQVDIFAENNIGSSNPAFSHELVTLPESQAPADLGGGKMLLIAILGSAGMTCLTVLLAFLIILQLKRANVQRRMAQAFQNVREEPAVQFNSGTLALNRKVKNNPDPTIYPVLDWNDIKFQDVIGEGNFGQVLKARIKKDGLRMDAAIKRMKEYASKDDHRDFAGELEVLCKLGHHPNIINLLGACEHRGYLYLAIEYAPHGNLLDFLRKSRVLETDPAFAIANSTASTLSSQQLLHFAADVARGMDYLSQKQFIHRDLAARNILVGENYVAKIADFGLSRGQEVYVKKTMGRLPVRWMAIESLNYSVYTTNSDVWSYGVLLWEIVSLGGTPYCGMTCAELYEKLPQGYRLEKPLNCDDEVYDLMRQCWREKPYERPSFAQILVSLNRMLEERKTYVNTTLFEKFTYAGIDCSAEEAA

## CN(C(=O)CN1CCOCC1)c1ccc2sc3c(-c4cccc5c(=O)cc(N6CC7CCC(C6)O7)oc45)cccc3c2c1 [NU5455]
  inhibition at 1 µM: -0.3%
